Like-named read-outs stand apart in the source and are kept apart here.
How the values were obtained:
Assay in all cases: Kinase profile (33P ATP filter binding)
Assay type in all cases: biochemical
[1] = biological target: T1, GCK (Homo sapiens, UniProt Q12851); conditions: read-out: Remaining protein kinase activity
T1 sequence (Q12851 1-820): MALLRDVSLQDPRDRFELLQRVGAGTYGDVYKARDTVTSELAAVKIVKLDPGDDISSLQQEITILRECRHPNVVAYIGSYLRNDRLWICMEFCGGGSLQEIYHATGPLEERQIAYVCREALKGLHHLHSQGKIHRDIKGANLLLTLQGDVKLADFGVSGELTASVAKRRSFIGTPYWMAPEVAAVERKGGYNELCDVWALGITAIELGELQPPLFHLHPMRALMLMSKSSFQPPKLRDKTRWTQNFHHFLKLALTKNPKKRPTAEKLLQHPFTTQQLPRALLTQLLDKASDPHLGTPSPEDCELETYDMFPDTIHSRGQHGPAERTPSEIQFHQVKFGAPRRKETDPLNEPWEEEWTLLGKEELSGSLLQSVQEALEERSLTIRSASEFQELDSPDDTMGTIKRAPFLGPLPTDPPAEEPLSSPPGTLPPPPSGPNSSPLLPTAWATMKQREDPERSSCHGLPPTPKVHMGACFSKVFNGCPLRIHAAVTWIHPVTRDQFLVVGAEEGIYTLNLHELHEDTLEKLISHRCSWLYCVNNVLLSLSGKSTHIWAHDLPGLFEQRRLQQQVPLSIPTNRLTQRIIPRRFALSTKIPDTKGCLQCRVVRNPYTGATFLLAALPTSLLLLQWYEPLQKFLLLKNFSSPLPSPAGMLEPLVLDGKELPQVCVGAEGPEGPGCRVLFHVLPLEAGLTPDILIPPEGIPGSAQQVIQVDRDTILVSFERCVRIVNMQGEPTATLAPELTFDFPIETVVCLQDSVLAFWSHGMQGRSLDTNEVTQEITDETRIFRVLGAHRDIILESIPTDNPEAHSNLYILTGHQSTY

[2] = biological target: CAMK1 (Homo sapiens, UniProt Q14012); conditions: read-out: Remaining protein kinase activity
[3] = biological target: T2, TAK1 (Homo sapiens, UniProt O43318); conditions: read-out: Remaining protein kinase activity
T2 sequence (O43318 1-303 limits assumed): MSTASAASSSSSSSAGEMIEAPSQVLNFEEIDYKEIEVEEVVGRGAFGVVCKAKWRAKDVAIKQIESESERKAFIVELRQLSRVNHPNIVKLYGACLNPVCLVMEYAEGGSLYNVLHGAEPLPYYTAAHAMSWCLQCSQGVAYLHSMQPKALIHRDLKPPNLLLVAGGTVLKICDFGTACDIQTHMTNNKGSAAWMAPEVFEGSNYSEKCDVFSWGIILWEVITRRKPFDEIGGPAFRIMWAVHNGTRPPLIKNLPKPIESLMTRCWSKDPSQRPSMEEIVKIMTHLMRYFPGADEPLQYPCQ

[4] = biological target: SYK (Homo sapiens, UniProt P43405)
[5] = biological target: MAP4K5 (Homo sapiens, UniProt Q9Y4K4); conditions: read-out: Remaining protein kinase activity
[6] = biological target: HIPK1 (Homo sapiens, UniProt Q86Z02); conditions: read-out: Remaining protein kinase activity
[7] = biological target: PIM1 (Homo sapiens, UniProt P11309); conditions: read-out: Remaining protein kinase activity
[8] = biological target: T3, BRSK2 (Homo sapiens, UniProt Q8IWQ3); conditions: read-out: Remaining protein kinase activity
T3 sequence (Q8IWQ3 1-736): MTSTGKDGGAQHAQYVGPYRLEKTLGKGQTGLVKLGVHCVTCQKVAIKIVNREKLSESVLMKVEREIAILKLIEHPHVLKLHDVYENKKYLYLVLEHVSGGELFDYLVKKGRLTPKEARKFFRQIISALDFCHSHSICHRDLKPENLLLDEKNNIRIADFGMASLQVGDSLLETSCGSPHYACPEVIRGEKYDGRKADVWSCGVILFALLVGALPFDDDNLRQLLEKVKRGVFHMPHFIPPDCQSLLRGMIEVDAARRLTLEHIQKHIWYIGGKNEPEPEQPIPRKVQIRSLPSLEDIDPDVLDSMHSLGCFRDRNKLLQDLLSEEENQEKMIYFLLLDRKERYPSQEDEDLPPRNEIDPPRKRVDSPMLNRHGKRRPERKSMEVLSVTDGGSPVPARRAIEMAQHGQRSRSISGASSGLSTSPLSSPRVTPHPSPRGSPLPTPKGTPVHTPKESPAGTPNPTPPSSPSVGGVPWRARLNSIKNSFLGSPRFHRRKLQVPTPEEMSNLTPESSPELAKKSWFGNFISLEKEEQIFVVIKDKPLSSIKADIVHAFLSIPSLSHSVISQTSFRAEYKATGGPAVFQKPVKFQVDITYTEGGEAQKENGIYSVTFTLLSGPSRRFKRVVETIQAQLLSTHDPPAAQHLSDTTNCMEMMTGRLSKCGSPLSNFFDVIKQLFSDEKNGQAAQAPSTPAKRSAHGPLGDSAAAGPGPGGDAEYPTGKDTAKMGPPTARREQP

[9] = biological target: PKBb (Homo sapiens, UniProt P31751); conditions: read-out: Remaining protein kinase activity
[10] = biological target: RSK1 (Homo sapiens, UniProt Q15418); conditions: read-out: Remaining protein kinase activity
[11] = biological target: S6K1 (Homo sapiens, UniProt P23443); conditions: read-out: Remaining protein kinase activity
S6K1, sequence (P23443 whole entry, species assumed): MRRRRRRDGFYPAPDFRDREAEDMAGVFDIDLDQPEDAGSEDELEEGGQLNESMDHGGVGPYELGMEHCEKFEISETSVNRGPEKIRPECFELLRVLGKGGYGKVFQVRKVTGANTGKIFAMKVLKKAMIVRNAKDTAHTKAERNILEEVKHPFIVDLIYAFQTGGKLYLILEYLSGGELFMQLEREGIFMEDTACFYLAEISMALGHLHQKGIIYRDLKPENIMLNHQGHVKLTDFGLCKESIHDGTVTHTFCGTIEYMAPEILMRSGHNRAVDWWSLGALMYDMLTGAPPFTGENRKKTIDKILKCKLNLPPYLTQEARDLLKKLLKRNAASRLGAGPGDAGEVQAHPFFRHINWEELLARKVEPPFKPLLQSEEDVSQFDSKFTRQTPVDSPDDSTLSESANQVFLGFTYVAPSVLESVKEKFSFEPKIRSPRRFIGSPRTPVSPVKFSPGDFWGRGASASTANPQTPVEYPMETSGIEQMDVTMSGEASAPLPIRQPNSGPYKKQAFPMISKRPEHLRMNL

CAMK1, sequence (Q14012 whole entry): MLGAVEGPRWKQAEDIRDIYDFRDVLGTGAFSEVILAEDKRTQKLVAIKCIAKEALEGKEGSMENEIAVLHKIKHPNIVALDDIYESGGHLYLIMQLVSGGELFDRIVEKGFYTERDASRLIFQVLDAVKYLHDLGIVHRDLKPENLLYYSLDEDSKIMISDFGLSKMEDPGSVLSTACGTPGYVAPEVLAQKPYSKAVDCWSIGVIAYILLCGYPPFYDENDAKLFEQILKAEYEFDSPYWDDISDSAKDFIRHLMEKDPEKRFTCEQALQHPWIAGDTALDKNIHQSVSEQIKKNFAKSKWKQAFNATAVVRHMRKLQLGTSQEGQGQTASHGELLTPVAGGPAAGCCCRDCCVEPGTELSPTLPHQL
PKBb, sequence (P31751 whole entry): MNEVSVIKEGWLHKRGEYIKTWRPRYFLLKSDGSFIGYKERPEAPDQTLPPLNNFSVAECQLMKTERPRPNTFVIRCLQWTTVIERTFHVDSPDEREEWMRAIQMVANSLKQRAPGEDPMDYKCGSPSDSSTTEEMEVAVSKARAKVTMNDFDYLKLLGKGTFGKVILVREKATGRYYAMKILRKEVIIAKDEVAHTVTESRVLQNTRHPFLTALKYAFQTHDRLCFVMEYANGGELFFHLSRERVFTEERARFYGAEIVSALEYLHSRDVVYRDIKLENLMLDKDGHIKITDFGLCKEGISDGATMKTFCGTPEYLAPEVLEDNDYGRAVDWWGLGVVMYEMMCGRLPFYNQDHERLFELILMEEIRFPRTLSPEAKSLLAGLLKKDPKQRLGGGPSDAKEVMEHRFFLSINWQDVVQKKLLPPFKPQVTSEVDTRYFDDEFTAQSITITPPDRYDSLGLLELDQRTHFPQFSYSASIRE
HIPK1, sequence (Q86Z02 whole entry): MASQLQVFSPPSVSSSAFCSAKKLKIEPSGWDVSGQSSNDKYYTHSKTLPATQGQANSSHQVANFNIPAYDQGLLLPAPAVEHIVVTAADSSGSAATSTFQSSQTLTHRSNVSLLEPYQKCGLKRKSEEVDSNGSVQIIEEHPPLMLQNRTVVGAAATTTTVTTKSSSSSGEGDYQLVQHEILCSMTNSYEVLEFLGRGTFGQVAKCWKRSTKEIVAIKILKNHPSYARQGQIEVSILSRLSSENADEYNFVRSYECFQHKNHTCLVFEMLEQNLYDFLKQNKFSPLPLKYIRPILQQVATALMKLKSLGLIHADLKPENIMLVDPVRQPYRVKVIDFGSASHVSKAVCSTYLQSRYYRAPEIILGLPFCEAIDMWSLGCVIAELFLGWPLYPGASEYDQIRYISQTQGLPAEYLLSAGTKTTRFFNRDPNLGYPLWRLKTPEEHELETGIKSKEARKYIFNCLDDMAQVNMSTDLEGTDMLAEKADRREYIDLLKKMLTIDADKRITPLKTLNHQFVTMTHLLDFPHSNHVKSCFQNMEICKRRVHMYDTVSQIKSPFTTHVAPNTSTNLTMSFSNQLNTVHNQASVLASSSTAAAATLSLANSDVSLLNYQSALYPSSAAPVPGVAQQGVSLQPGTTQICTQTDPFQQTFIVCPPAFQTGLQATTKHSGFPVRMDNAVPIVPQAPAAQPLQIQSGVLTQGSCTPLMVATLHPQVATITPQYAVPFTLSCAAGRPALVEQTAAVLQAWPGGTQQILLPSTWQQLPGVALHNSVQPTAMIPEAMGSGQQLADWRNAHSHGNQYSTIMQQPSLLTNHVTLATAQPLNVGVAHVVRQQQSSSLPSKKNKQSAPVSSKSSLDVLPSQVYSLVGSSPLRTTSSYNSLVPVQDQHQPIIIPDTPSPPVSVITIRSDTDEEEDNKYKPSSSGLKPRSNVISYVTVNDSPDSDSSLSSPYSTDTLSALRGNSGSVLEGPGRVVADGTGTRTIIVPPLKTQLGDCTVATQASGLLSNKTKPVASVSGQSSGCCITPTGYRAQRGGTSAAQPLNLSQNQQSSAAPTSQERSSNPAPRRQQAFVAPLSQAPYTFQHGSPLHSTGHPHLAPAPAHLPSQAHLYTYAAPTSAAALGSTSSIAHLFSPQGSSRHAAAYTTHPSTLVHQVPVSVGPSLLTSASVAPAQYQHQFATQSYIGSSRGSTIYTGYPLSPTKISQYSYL
MAP4K5, sequence (Q9Y4K4 whole entry): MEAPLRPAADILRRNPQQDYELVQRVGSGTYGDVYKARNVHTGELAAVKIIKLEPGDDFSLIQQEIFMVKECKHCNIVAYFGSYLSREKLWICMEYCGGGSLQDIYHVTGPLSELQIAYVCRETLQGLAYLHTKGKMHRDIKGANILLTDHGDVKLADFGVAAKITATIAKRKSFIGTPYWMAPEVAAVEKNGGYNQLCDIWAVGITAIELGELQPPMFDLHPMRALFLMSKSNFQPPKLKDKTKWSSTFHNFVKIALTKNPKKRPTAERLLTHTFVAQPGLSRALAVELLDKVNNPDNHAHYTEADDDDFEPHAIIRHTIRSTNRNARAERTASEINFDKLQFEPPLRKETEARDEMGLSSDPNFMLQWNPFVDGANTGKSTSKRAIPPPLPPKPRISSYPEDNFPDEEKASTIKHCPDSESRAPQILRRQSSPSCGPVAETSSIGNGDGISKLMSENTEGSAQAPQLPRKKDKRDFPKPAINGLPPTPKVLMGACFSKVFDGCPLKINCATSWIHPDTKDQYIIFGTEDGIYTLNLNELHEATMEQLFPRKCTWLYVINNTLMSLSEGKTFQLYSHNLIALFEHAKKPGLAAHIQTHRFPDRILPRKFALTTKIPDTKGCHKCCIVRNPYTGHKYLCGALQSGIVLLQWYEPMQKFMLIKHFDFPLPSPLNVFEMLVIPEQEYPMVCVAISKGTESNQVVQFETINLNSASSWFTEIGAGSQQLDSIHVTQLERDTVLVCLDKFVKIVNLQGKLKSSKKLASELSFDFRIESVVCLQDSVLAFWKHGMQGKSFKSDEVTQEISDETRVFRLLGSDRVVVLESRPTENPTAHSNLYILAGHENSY
RSK1, sequence (Q15418 whole entry, species assumed): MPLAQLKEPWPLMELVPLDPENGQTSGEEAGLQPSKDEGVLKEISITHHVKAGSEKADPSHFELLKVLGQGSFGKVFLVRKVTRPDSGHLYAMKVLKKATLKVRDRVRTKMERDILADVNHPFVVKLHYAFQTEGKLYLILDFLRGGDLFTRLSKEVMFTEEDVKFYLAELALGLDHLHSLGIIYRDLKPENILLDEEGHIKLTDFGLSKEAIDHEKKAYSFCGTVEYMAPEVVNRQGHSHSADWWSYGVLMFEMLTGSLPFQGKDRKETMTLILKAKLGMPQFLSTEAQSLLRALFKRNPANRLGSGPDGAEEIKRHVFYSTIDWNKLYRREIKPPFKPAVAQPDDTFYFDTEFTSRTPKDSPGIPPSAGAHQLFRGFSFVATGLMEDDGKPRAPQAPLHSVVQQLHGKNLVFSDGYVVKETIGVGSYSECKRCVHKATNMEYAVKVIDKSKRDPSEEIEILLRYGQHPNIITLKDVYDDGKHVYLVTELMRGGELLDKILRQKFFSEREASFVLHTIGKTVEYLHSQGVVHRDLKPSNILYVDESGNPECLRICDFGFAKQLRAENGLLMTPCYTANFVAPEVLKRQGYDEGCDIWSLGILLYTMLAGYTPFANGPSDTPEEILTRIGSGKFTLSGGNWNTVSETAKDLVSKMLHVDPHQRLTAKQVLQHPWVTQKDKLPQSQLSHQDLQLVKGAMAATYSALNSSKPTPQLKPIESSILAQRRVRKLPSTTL
PIM1, sequence (P11309 whole entry): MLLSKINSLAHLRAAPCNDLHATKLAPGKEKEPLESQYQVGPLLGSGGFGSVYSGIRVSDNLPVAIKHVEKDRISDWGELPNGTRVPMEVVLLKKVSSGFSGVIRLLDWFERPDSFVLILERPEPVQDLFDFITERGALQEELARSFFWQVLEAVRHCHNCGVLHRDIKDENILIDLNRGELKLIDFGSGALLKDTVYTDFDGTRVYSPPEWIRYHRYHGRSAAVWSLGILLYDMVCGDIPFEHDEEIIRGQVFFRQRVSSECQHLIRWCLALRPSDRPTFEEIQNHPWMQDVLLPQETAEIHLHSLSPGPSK

COc1ccc2sc(-c3cncc(NC(C)=O)c3)nc2c1 [PST-001, N-(5-(5-Methoxybenzo[d]thiazol-2-yl)pyridin-3-yl)acetamide]
remaining activity at 1 µM [1]: 118%
remaining activity at 100 µM [1]: 123%
remaining activity at 100 µM [2]: 100%
remaining activity at 1 µM [3]: 48%
remaining activity at 100 µM [3]: 63%
Remaining protein kinase activity ([4]; 1 μM): 112%
Remaining protein kinase activity ([4]; 100 μM): 58%
remaining activity at 1 µM [5]: 82%
remaining activity at 100 µM [5]: 92%
remaining activity at 1 µM [6]: 113%
remaining activity at 100 µM [6]: 113%
remaining activity at 1 µM [7]: 98%
remaining activity at 100 µM [7]: 32%
remaining activity at 1 µM [8]: 128%
remaining activity at 100 µM [8]: 125%
remaining activity at 1 µM [9]: 112%
remaining activity at 100 µM [9]: 98%
remaining activity at 1 µM [10]: 99%
remaining activity at 100 µM [10]: 88%
remaining activity at 1 µM [11]: 113%
remaining activity at 100 µM [11]: 81%

COc1ccc2sc(-c3cncc(N)c3)nc2c1 [compound 1, 5-(5-Methoxybenzo[d]thiazol-2-yl)pyridin-3-amine]
remaining activity at 1 µM ([1]; GCK, 1 μM): 105%
remaining activity at 100 µM ([1]; GCK, 100 μM): 28%
remaining activity at 1 µM ([2]; CAMK1, 1 μM): 99%
remaining activity at 100 µM ([2]; CAMK1, 100 μM): 52%
remaining activity at 1 µM ([3]; TAK1, 1 μM): 70%
remaining activity at 100 µM ([3]; TAK1, 100 μM): 6%
Remaining protein kinase activity ([4]; 1 μM): 113%
Remaining protein kinase activity ([4]; 100 μM): 38%
remaining activity at 1 µM ([5]; MAP4K5, 1 μM): 106%
remaining activity at 100 µM ([5]; MAP4K5, 100 μM): 61%
remaining activity at 1 µM ([6]; HIPK1, 1 μM): 116%
remaining activity at 100 µM ([6]; HIPK1, 100 μM): 36%
remaining activity at 1 µM ([7]; PIM1, 1 μM): 87%
remaining activity at 100 µM ([7]; PIM1, 100 μM): 24%
remaining activity at 1 µM ([8]; BRSK2, 1 μM): 125%
remaining activity at 100 µM ([8]; BRSK2, 100 μM): 53%
remaining activity at 1 µM ([9]; PKBb, 1 μM): 123%
remaining activity at 100 µM ([9]; PKBb, 100 μM): 15%
remaining activity at 1 µM ([10]; RSK1, 1 μM): 99%
remaining activity at 100 µM ([10]; RSK1, 100 μM): 42%
remaining activity at 1 µM ([11]; S6K1, 1 μM): 118%
remaining activity at 100 µM ([11]; S6K1, 100 μM): 58%

Reference: PMC8617627, “Novel DYRK1A Inhibitor Rescues Learning and Memory Deficits in a Mouse Model of Down Syndrome” (Pharmaceuticals, 2021)
